Laboratory results: patent US20140011706A1, “SURFACE DISPLAY OF PO[…] METAL PORPHYRIN OR A FLAVIN” (Autodisplay Biotech GMBH, priority 2010, published 2014)
Like-named read-outs stand apart in the source and are kept apart here.

Assays:
CYP106A2 [1] = target: T1, CYP106A2 (Priestia megaterium, UniProt Q06069)
CYP106A2 [2] = target: T1, CYP106A2; assay: NADPH consumption of cells displaying CYP106A2 in the presence of imipramine (N-demethylation); assay type: biochemical, E. coli BL21(DE3); parameters: expressed in transfected cells; host or cells: E. coli BL21(DE3) pET-CYP13, induced with 1 mM IPTG; conditions: imipramine 2.5 μM, NADPH 200 μM, BL21(DE3) pETCYP13 cells OD578=2.5, Adx and AdR added
Experimental: The cells were prepared as described in Example 1. Redox equivalents are transferred from NADPH via the proteins AdR and Adx to the converting enzyme.
The reaction mixture contained in a total volume of 0.2 mL Hepes buffer (50 mM, 0.05% Tween20, pH 7.4), imipramine (2.5 μM), Adx ([…]), AdR (0.5 μM), NADPH (200 μM) and cells of E. coli BL21(DE3) or BL21(DE3) pETCYP13 corresponding to an OD578=2.5.
The by-product formalin (cf. FIG. 17) has been photometrically identified to be produced by the cells displaying CYP106A2, but not in the control cells (data not shown).

[3] = E. coli BL21(DE3) pETCYP13 whole cells, induced with 1 mM IPTG, Adx and AdR added

Row | Compound | product formation from substrate (HPLC product peak) (CYP106A2 [1]; BL21(DE3) pETCYP13 whole cells, 1 mM IPTG, without addition of Adx) | product formation from substrate (HPLC product peak) (CYP106A2 [1]; [3]) | amount of product 15β-deoxycorticosterone (HPLC) (CYP106A2 [1]; TolC negative strain JW5503-1 (DE3) pETCYP13 compared with TolC positive BL21(DE3) pETCYP13, IPTG induced) | conversion indicated by NADPH consumption difference versus control cells (CYP106A2 [2])
1 | C[C@]12CC[C@H]3[C@@H](CCC4=CC(=O)CC[C@@]43C)[C@@H]1CC[C@@H]2C(=O)CO [11-deoxycorticosterone] | no product peak | resulted in a product peak | decreased | –
2 | CN(C)CCCN1c2ccccc2CCc2ccccc21 [imipramine] | – | – | – | conversion of imipramine into desipramine
3 | CC(C)C1=CC2=CC[C@@H]3[C@](C)(CCC[C@@]3(C)C(=O)O)[C@H]2CC1 [abietic acid] | – | a product occurred at the expected retention time | – | –
